Assay results published in patent US9763939B2, “Compositions and methods for treating mitochondrial diseases” (BIOVISTA, INC., priority 2012, dated 2017).
Like-named read-outs stand apart in the source and are kept apart here.

Tests used:
in vivo [1] = details: rat
[2] = tested on: reuptake of 5-hydroxytryptamine; assay: Effect on reuptake of 5-hydroxytryptamine
Absolute bioavailability = details: in vivo; species not given
[3] = tested on: YG8R FRDA mouse neuronal stem cells (NSCs); assay: FAC/BSO oxidative stress insult, cell viability (Presto Blue), YG8R NSCs; assay type: cell-based
Protocol: (§1) EXAMPLE. Primary fibroblast and neuronal stem cell (NSC) cultures from the YG8R FRDA mouse model. The cell cultures are used as a rapid means to test the effectiveness of potential therapies before proceeding to longer-term FRDA mouse model investigations. A parallel assay using YG22R NSCs may be used.
(§2) YG8R fibroblasts and NSCs are treated with increasing concentrations of test compound, and a vehicle-only negative control. Optionally, YG8R fibroblasts and NSCs are treated with a positive control compound, such as 1 μM idebenone. Two hours after the initial treatment, cells are lesioned with […] FAC and 1 mM BSO for 48 hours. Cell viability is then determined using Presto Blue Cell Viability Reagent (Life Technologies) for 24 hours and subsequent colorimetric spectrophotometry. […] Similarly, 1.8 μM tetrindole restored the vehicle-treated FAC/BSO cell viability value of 26% to a value of 53% (p<0.001), relative to the vehicle treated non-insulted cell value as 100%.
Similarly, 1.8 μM tetrindole restored the vehicle-treated FAC/BSO cell viability value of 19% to a value of 40% (p<0.001), relative to the vehicle treated non-insulted cell value as 100%.

cholinergic system = assay: Effect on the cholinergic system
[4] = tested on: reuptake of noradrenaline; assay: Effect on reuptake of noradrenaline
[5] = Pharmacokinetics and distribution in the rat; assay type: in vivo
[6] = tested on: human primary fibroblasts from patients suffering from LHON; assay: cells
Protocol: (§3) EXAMPLE. […] Briefly, primary human fibroblasts from patients suffering from Friedreich's ataxia and LHON are lesioned with 100 μM BSO (LHON fibroblasts) or 250 μM BSO (FRDA fibroblasts) respectively, for 48 hours. Apoptosis, toxicity and viability rate of cells are determined using the ApoTox-Glo-Kit (Promega): the reagent for assessing viability and toxicity is applied 1:5 into treatment medium and incubated for 30 min at 37° C. Next, fluorescence is measured at the following wavelength sets: 400EX/505EM (viability) and 485EX/520EM (toxicity). In case of apoptosis measurement the caspase reagent was added 1:2 and incubated at RT for 30 min, the caspase activity (apoptosis) was measured as luminescence
(§4) EXAMPLE. Evaluation of Tetracyclic Pyrazinoindoles, and Pharmaceutically Acceptable Salts Thereof. One or more tetracyclic pyrazinoindoles are applied 2 and 24 hours before BSO treatment and are present throughout the assay. An optional reference compound, such as idebenone may be included for comparison. BSO treated cells without any treatment (BSO group) as well as cells neither treated with BSO nor with any treatment (Vehicle Control (VC) group) serve as controls. Cells are assessed for apoptosis, toxicity and viability immediately after BSO lesion by means of the ApoTox-Glo-assay Kit (Promega). Three independent experiments in four technical replicates are performed for all groups as depicted in Table 1 (different tetracyclic pyrazinoindoles are labeled as Test Items (T.I.1-T.I.2) and an optional positive control Reference Item 1 (R.I.1)):
(§5) BSO generally reduces a cell's protection against oxidative damage. Cells harvested from FRDA and LHON patients generate higher levels of ROS than normal cells. Apoptosis, toxicity and viability rate of cells are determined using the ApoTox-Glo-Kit (Promega): the reagent for assessing viability and toxicity is applied 1:5 into treatment medium and incubated for 30 min at 37° C. Next, fluorescence is measured at the following wavelength sets: 400EX/505EM (viability) and 485EX/520EM (toxicity). In case of apoptosis measurement the caspase reagent is added 1:2 and incubated at RT for 30 min, the caspase activity (apoptosis) was measured as luminescence
(§6) Descriptive statistical analysis was performed. Data are presented as mean±standard error of mean (SEM) in percent of vehicle control, MPP+ lesion and BSO lesion, respectively. Differences between compound-treated groups and controls (vehicle, BSO) are evaluated by means of One-Way ANOVA.
(§7) EXAMPLE. […] One vial is thawed and administered 2 and 24 hours before BSO treatment, at concentrations 0.6 μM, 1.8 μM, 5.5 μM and 16 μM. Apoptosis, toxicity and viability rate of cells are determined using the ApoTox-Glo-Kit (Promega). Human primary fibroblasts from patients suffering from LHON are used. Three independent experiments in four technical replicates are performed for all groups. […] Statistical significance is indicated by NS=not significant p>0.1, *=p<0.05, **=p<0.01, ***=p<0.001 as determined by One-Way ANOVA. Data are shown as group mean+/−SEM.
(§8) EXAMPLE. Tetrindole is diluted in DMSO. One vial is thawed and administered 2 and 24 hours before BSO treatment, at concentrations 0.2 μM, 0.6 μM, 1.8 μM and 5.5 μM. Apoptosis, toxicity and viability rate of cells are determined using the ApoTox-Glo-Kit (Promega). Human primary fibroblasts from patients suffering from LHON are used. Three independent experiments in four technical replicates are performed for all groups. […] Statistical significance is indicated by NS=not significant p>0.1, *=p<0.05, **=p<0.01, ***=p<0.001 as determined by One-Way ANOVA. Data are shown as group mean+/−SEM.

[7] = tested on: C57BL/6 mice with MOG-induced EAE; assay: MOG-induced Experimental Allergic Encephalomyelitis (MOG-EAE) mouse model, spinal cord histology; assay type: in vivo; details: spinal cord H&E histology day 35, pirlindole 30 mg/kg, dexamethasone positive control, dose not given; for Severity Score (infiltration by inflammatory cells): vehicle 2.85±0.66; for White Matter Damage (WMD) percentage (axonal degeneration): vehicle 74.2±26.1
Protocol: EXAMPLE. Evaluation of anti-inflammatory and direct protection mode of action. Compounds described herein are evaluated in a standard MOG-induced Experimental Allergic Encephalomyelitis (MOG-EAE) mouse model of neurodegeneration to determine whether the compounds protect neurons directly, or via an indirect anti-inflammatory mode of action. EAE is induced in C57BL/6 mice by the single subcutaneous injection of MOG emulsified in Complete Freund's Adjuvant (CFA) on study days 0 and 6, followed by intraperitoneal supplemental immunostimulation with Pertussis Toxin (PT) carried out once at the time of EAE induction and once again 48 hours later. Test animals are observed for 35 days. Histology samples are harvested from the spinal cords of the animals on day 35 and are stained with Hematoxylin & Eosin (H&E). Analysis of the samples comprises two parameters: a) The Severity Score which refers mainly to infiltration by inflammatory cells and b) White Matter Damage (WMD), which refers mainly to axonal degeneration.

[8] = Pharmacokinetics in the dog; assay type: in vivo
[9] = tested on: human primary fibroblasts from patients suffering from Friedreich's ataxia; assay: cells; details: for statistically significant improvement in apoptosis compared to the BSO group: all tested doses
Protocol: as §3, §4, §5, §6
as §7, with “Friedreich's ataxia” for “LHON”
as §8, with “Friedreich's ataxia” for “LHON”

mice = details: mouse, in vivo, po
dopaminergic system = assay: Effect on the dopaminergic system
in vivo [10] = details: mouse
[11] = tested on: YG8R FRDA mouse fibroblasts; assay: FAC/BSO oxidative stress insult, cell viability (Presto Blue), YG8R fibroblasts; assay type: cell-based; details: FAC and 1 mM BSO 48 h
Protocol: as §1, §2

[12] = too lipophillic; cannot reach the mitochondria (Edeas M. Pharm Res. 2011); cited from earlier work
[13] = rats, after oral and i.p. administration
[14] = Homo sapiens, Fibroblast, 48 h, read-out: protective effect in relative cell viability

**Q.** With Cc1ccc2c(c1)c1c3n2CCNC3CCC1 (stereo not drawn) [pirlindole, 2,3,3a,4,5,6-hexahydro-8-methyl-1H-pyrazino[3,2,1-j,k]carbazole] as the compound, how does the LD50 (in vivo [1]; iv) read?
**A.** ~80 mg/kg

**Q.** And the LD50 (in vivo [1]; po)?
**A.** 2000 to 5000 mg/kg

**Q.** What about the “effect on the reuptake of 5-hydroxytryptamine” value [2] of the same compound?
**A.** inhibitory effect

**Q.** And the bioavailability (Absolute bioavailability)?
**A.** 20 to 30%

**Q.** What about the “protection against the oxidative stress insult” value (shortened to “protection”) [3] of the same compound?
**A.** significantly protect

**Q.** And the viability at 5.5 µM ([3]; Mus musculus, 5.5 μM, vehicle-treated FAC/BSO value 19%, relative to vehicle treated non-insulted cells as 100%, p<0.001)?
**A.** 41%

**Q.** What about the “effect on the cholinergic system” value (cholinergic system) of the same compound?
**A.** no effect

**Q.** And the “effect on the reuptake of noradrenaline” value [4]?
**A.** inhibitory effect

**Q.** And the fraction eliminated ([5]; after 48 h)?
**A.** 80-85%

**Q.** And the Tmax ([5]; in vivo, rat, oral, approximately)?
**A.** 2 to 6 h

**Q.** And the “second phase of elimination” value ([5]; rat)?
**A.** 35 to 70 h

**Q.** And the “first phase of elimination” value ([5]; rat, approximately)?
**A.** approximately 8 h

**Q.** And the “blood brain barrier (BBB) penetration” value [5, 13]?
**A.** good blood brain barrier (BBB) penetration

**Q.** What about the tissue distribution [5, 13] of the same compound?
**A.** distributed in the lungs, liver, kidneys, spleen and various glands (but only transiently in bone marrow)

**Q.** And the fraction eliminated ([5]; within 24 h)?
**A.** 40-60%

**Q.** What about the “statistically significant overall cytotoxicity over BSO control” value [6] of the same compound?
**A.** not observed at any dose

**Q.** And the “apoptosis (caspase activity)” value ([6]; 16 μM, only significant after 24 h)?
**A.** reduced

**Q.** And the “apoptosis compared to the BSO group” value ([6]; 5.5 dose)?
**A.** Statistically significant inferior apoptosis

**Q.** What about the “concentrations with protective effect or protective trend on cell viability” value ([6]; BSO lesion, pirlindole at both time points, tetrindole dose dependent protective trend) of the same compound?
**A.** 16 µM

**Q.** And the viability at 16 µM [6, 14]?
**A.** 122%

**Q.** And the “Severity Score (infiltration by inflammatory cells)” value [7]?
**A.** 2.7±1.29

**Q.** And the “White Matter Damage (WMD) percentage (axonal degeneration)” value [7]?
**A.** 41±44.1 percentage

**Q.** And the “first phase of elimination” value ([8]; dog, approximately)?
**A.** approximately 1.5 h

**Q.** And the “second phase of elimination” value ([8]; dog, approximately)?
**A.** ~11 h

**Q.** What about the “third phase of elimination” value ([8]; dog, approximately) of the same compound?
**A.** ~185 h

**Q.** What about the Tmax ([8]; in vivo, dog, oral, approximately) of the same compound?
**A.** 1 to 2 h

**Q.** What about the “blood levels versus dose” value ([8]; male and female dogs, repeated administration of three dose levels p.o. for one year) of the same compound?
**A.** strictly dose-dependent

**Q.** And the “statistically significant overall cytotoxicity over BSO control” value [9]?
**A.** not observed at any dose

**Q.** What about the “apoptosis (caspase activity)” value ([9]; 16 μM, only after the short incubation (2 h before lesion)) of the same compound?
**A.** reduced apoptosis

**Q.** What about the viability at 16 µM [9, 14] of the same compound?
**A.** 161%

**Q.** And the “statistically significant improvement in apoptosis compared to the BSO group” value [9]?
**A.** not observed at any dose

**Q.** And the maximal non-lethal dose (mice)?
**A.** approximately 300 mg/kg

**Q.** And the “effect on the dopaminergic system” value (dopaminergic system)?
**A.** no effect

**Q.** What about the LD50 (in vivo [10]; iv) of the same compound?
**A.** 70 to 80 mg/kg

**Q.** What about the LD50 (in vivo [10]; po) of the same compound?
**A.** 400 to 1000 mg/kg

**Q.** What about the “protection” value [11] of the same compound?
**A.** significantly protect

**Q.** And the viability at 16 µM ([11]; Mus musculus, Fibroblast, 16 μM, vehicle-treated FAC/BSO value 26%, relative to vehicle treated non-insulted cells as 100%, p<0.001)?
**A.** 67%

**Q.** Which “protection” value [3] does the source give for c1cc2c(cc1C1CCCCC1)c1c3n2CCNC3CCC1 (stereo not drawn) [tetrindole, 2,3,3a,4,5,6-Hexahydro-8-cyclohexyl-1H-pyrazino[3,2,1-j,k]carbazole] here?
**A.** significantly protect

**Q.** And the viability at 1.8 µM ([3]; Mus musculus, 1.8 μM, vehicle-treated FAC/BSO value 19%, relative to vehicle treated non-insulted cells as 100%, p<0.001)?
**A.** 40%

**Q.** What about the “statistically significant overall cytotoxicity over BSO control” value [6] of the same compound?
**A.** not observed at any dose

**Q.** And the viability at 1.8 µM [6, 14]?
**A.** 122%

**Q.** And the “statistically significant improvement in apoptosis compared to the BSO group” value ([6]; all tested doses)?
**A.** not observed at any dose

**Q.** What about the “statistically significant improvement in viability compared to the BSO group” value ([6]; all tested doses) of the same compound?
**A.** not observed at any dose

**Q.** What about the viability at 1.8 µM [9, 14] of the same compound?
**A.** 156%

**Q.** What about the “statistically significant improvement in apoptosis compared to the BSO group” value [9] of the same compound?
**A.** not observed at any dose

**Q.** What about the “statistically significant overall cytotoxicity over BSO control” value ([9]; human) of the same compound?
**A.** not observed at any dose, except the highest dose of 5.5

**Q.** And the “protection” value [11]?
**A.** significantly protect

**Q.** And the viability at 1.8 µM ([11]; Mus musculus, Fibroblast, 1.8 μM, vehicle-treated FAC/BSO value 26%, relative to vehicle treated non-insulted cells as 100%, p<0.001)?
**A.** 53%

**Q.** For C[C@@H]1C[C@H]2[C@@H]3CCC4=CC(=O)C=C[C@]4(C)[C@@]3(F)[C@@H](O)C[C@]2(C)[C@@]1(O)C(=O)CO [dexamethasone], which “Severity Score (infiltration by inflammatory cells)” value [7] is on record?
**A.** 1.45±1.09

**Q.** What about the “White Matter Damage (WMD) percentage (axonal degeneration)” value [7] of the same compound?
**A.** 24.4±33.3 percentage

**Q.** Which “permeation of cell membranes” value [12] does the source give for vitamin E here?
**A.** permeates cell membranes poorly
